We go through 15 compounds from ChEMBL document CHEMBL5608180, “DNA G-quadruplexes in the genome of Trypanosoma cruzi as potential therapeutic targets for Chagas disease: Dithienylethene ligands as effective antiparasitic agents” (Eur J Med Chem, 2024).

For data set [1], the system named is Trypanosoma cruzi. As to the kind of experiment: Antiparasitic activity against epimastigote form of Trypanosoma cruzi Y(TcII) assessed as inhibition of parasite growth incubated for 96 hrs followed by incubation with resazurin for 4 to 6 hrs by resazurin dye based fluorescence analysis. The class given is functional, organism-based.
The test system of data set [2] is Trypanosoma cruzi. As to the kind of experiment: Antiparasitic activity against epimastigote form of Trypanosoma cruzi SOL(TcV) assessed as inhibition of parasite growth incubated for 96 hrs followed by incubation in dark with resazurin for 4 to 6 hrs by resazurin dye based fluorescence analysis. The class given is functional, organism-based. A general note: The colour change of resazurin is a common sign of viable cells or microbes.

Data set [3] has as its system Trypanosoma cruzi. As to the kind of experiment: Antiparasitic activity against epimastigote form of Trypanosoma cruzi BM Lopez (TcIa) assessed as inhibition of parasite growth incubated for 96 hrs followed by incubation with resazurin for 4 to 6 hrs by resazurin dye based fluorescence analysis. Format: functional, organism-based.
The subject of data set [4] is Trypanosoma cruzi. As to the kind of experiment: Antiparasitic activity against epimastigote form of Trypanosoma cruzi DA (TcI) assessed as inhibition of parasite growth incubated for 96 hrs followed by incubation with resazurin for 4 to 6 hrs by resazurin dye based fluorescence analysis. Format: functional, organism-based.
A short description of data set [5]: Cytotoxicity against human MRC5 cells. The class given is toxicity, cell-based.
The nature of data set [6]: Selectivity index, ratio of IC50 for cytotoxicity against human MRC5 cells to IC50 for antiparasitic activity against epimastigote form of Trypanosoma cruzi Y (TcII). Format: toxicity, cell-based. Conditions: read-out: Ratio IC50.
A short description of data set [7]: Selectivity index, ratio of IC50 for cytotoxicity against human MRC5 cells to IC50 for antiparasitic activity against epimastigote form of Trypanosoma cruzi SOL (TcV). Format: toxicity, cell-based. The settings on record: read-out: Ratio IC50.
The nature of data set [8]: Selectivity index, ratio of IC50 for cytotoxicity against human MRC5 cells to IC50 for antiparasitic activity against epimastigote form of Trypanosoma cruzi BM Lopez (TcIa). The class given is toxicity, cell-based. Conditions: read-out: Ratio IC50.
Data set [9] can be described thus: Selectivity index, ratio of IC50 for cytotoxicity against human MRC5 cells to IC50 for antiparasitic activity against epimastigote form of Trypanosoma cruzi DA (TcI). The class given is toxicity, cell-based. The settings on record: read-out: Ratio IC50.
Data set [10] concerns Trypanosoma cruzi. As to the kind of experiment: Antiparasitic activity against trypomastigote form of Trypanosoma cruzi SOL (MHOM/ES/2008/SOL; DTU V) assessed as inhibition of parasite growth incubated for 96 hrs followed by incubation in dark with resazurin for 4 to 6 hrs by resazurin dye based fluorescence analysis. Format: functional, organism-based.
The nature of data set [11]: Selectivity index, ratio of IC50 for cytotoxicity against human MRC5 cells to IC50 for antiparasitic activity against trypomastigote form of Trypanosoma cruzi SOL (TcV). The class given is toxicity, cell-based. Conditions: read-out: Ratio IC50.

As for `C[C@]12SC(c3ccc(-c4ccncc4)cc3)=CC1=C1CCCC1=C1C=C(c3ccc(-c4ccncc4)cc3)S[C@@]12C`, the IC50 was 42.8 µM in data set [1]; above 50 µM in data set [2]; 60.1 µM in [3]; 36.6 µM in data set [4]; 4.9 µM in [5]. Moreover, the selectivity ratio in data set [6], in data set [7], in [8] and in data set [9] was below 1 throughout.

Take `Cc1sc(-c2ccc(CN3CCCC3)cc2)cc1C1=C(c2cc(-c3ccc(CN4CCCC4)cc3)sc2C)CCC1`: the IC50 in [1] was found to be 6.6 µM; in data set [2], 9.75 µM; in [3], 4.6 µM; in data set [4] it was 6.1 µM; in data set [5], 7.2 µM. The selectivity ratio in data set [6] was 1.1; in data set [7], below 1; in [8], 1.6; in data set [9], 1.2.

In the case of `Cc1sc(-c2cc[n+](C)cc2)cc1C1=C(c2cc(-c3cc[n+](C)cc3)sc2C)CCC1`, the IC50 in data set [1] was 23.1 µM; in data set [2] it was above 27.4 µM; in data set [3], above 28.6 µM; in [4], above 28.2 µM; in data set [5] it was 2.4 µM. Moreover, the selectivity ratio in data set [6], in [7], in [8] and in [9] was below 1 in each case.

As for `CN(C)c1ccc(Nc2c3ccc(NC(=O)CCN4CCCC4)cc3nc3cc(NC(=O)CCN4CCCC4)ccc23)cc1`, the IC50 was above 100 µM in data set [1], above 100 µM in data set [2], 49.4 µM in data set [3] and 47.5 µM in data set [4]. Also, the selectivity ratio in data set [6], in [7], in [8] and in [9] was below 1 each time.

As for `C[C@]12SC(c3ccc(N4CCNCC4)cc3)=CC1=C1CCCC1=C1C=C(c3ccc(N4CCNCC4)cc3)S[C@@]12C`, the IC50 was above 50 µM in data set [1]; above 50 µM in data set [2]; above 50 µM in [3]; 32 µM in data set [4]; 4.3 µM in data set [5]. Further, the selectivity ratio in [6], in data set [7], in data set [8] and in [9] was below 1 throughout.

Consider `Cc1sc(-c2ccc(CC[N+](C)(C)C)cc2)cc1C1=C(c2cc(-c3ccc(CC[N+](C)(C)C)cc3)sc2C)CCC1`, for which the half-inhibitory concentration (IC50) is 14.2 µM in data set [1]; 21.2 µM in data set [2]; 19.1 µM in [3]; 6.8 µM in [4]; 2.7 µM in data set [5]. In addition, the selectivity ratio in [6], in data set [7], in data set [8] and in data set [9] was below 1 throughout.

With `O=C(Cn1ccnc1[N+](=O)[O-])NCc1ccccc1` [BENZNIDAZOLE], the IC50 worked out at 20.3 µM in data set [1]; 11.2 µM in data set [2]; 6.3 µM in data set [3]; 47.2 µM in data set [5]; 57.1 µM in [10]. For the same compound, the selectivity ratio in [6] is 2.3; in data set [7], 4.2; in [8], 7.5; in data set [11], below 1.

As to `Cc1sc(-c2ccc(-c3cc[n+](C)cc3)cc2)cc1C1=C(c2cc(-c3ccc(-c4cc[n+](C)cc4)cc3)sc2C)CCC1`, the IC50 was 14 µM in data set [1]; 37.1 µM in [2]; 25.2 µM in data set [3]; 28.4 µM in [4]; 2.2 µM in data set [5]. The selectivity ratio in data set [6], in data set [7], in data set [8] and in data set [9] was below 1 in each case.

As to `Cc1sc(-c2ccc(CCN(C)C)cc2)cc1C1=C(c2cc(-c3ccc(CCN(C)C)cc3)sc2C)CCC1`, the IC50 is 3.6 µM in data set [1]; 3.8 µM in data set [2]; 4 µM in data set [3]; 2.7 µM in data set [4]; 2.6 µM in data set [5]. In addition, the selectivity ratio in data set [6], in data set [7], in data set [8] and in data set [9] was below 1 each time.

Turning to `CN(C)CCc1ccc(C2=CC3=C4CCCC4=C4C=C(c5ccc(CCN(C)C)cc5)S[C@]4(C)[C@@]3(C)S2)cc1`, the 50% inhibitory concentration (IC50) in [1] was 31.1 µM; in [2], 45.1 µM; in data set [3], above 48.4 µM; in [4] it was 13.4 µM; in [5] it was 6.1 µM. The selectivity ratio in data set [6], in data set [7], in data set [8] and in data set [9] was below 1 in each case.

Regarding `NCCOc1cc(C(=O)Nc2cc(OCCN)c3ccccc3n2)nc(C(=O)Nc2cc(OCCN)c3ccccc3n2)c1` [PYRIDOSTATIN], the IC50 in data set [1], in data set [2], in [3] and in data set [4] was above 100 µM in each case. The selectivity ratio in data set [6], in [7], in data set [8] and in [9] was below 1 in each case.

For `Cc1sc(-c2ccc(N3CCNCC3)cc2)cc1C1=C(c2cc(-c3ccc(N4CCNCC4)cc3)sc2C)CCC1`, the IC50 in data set [1] came out at 29.5 µM; in [2], 30.8 µM; in data set [3] it was 29.8 µM; in data set [4], 13.9 µM; in data set [5] it was 8 µM. For the same compound, the selectivity ratio in data set [6], in [7], in data set [8] and in data set [9] was below 1 each time.

As to `C[C@]12SC(c3ccc(CN4CCCC4)cc3)=CC1=C1CCCC1=C1C=C(c3ccc(CN4CCCC4)cc3)S[C@@]12C`, the IC50 in data set [1] was above 34 µM; in [2], above 50 µM; in data set [3], above 50 µM; in data set [4] it was 40.1 µM; in data set [5], 22.5 µM. The selectivity ratio in data set [6], in data set [7], in data set [8] and in [9] was below 1 each time.

As to `C[C@]12SC(c3ccncc3)=CC1=C1CCCC1=C1C=C(c3ccncc3)S[C@@]12C`, the IC50 was 13.9 µM in data set [1]; above 18.3 µM in [2]; above 25.6 µM in data set [3]; 30.2 µM in [4]; 3.3 µM in data set [5]. Moreover, the selectivity ratio in data set [6], in data set [7], in data set [8] and in data set [9] was below 1 throughout.

In the case of `Cc1sc(-c2cccc3c2ccc[n+]3C)cc1C1=C(c2cc(-c3cccc4c3ccc[n+]4C)sc2C)CCC1`, the half-maximal inhibitory concentration (IC50) in data set [1] worked out at 22.8 µM; in data set [2], 20.4 µM; in data set [3], 22.7 µM; in data set [4] it was 14.4 µM; in data set [5], 20.5 µM. Further, the selectivity ratio was below 1 in data set [6], 1 in data set [7], below 1 in data set [8] and 1.4 in data set [9].

As usually defined, the IC50 is the concentration that inhibits the measured activity by half.
